Experiments:
[1] = molecular target: T1, Human PI3Kα (Homo sapiens, UniProt P42336); assay: PI3Kα enzyme inhibitory activity (Kinase-Glo Plus luminescence); format: biochemical; details: Human PI3Kα 12 ng/well, phosphatidylinositol 0.2 μg/well, 37° C. for 3 hours
T1 construct: purchased Millipore Corporation 14-602
Procedure: 2. PI3Kα Enzyme Inhibitory Activity
Human PI3Kα (12 ng/well, Millipore Corporation, Catalogue No. 14-602), phosphatidylinositol (0.2 μg/well), and the test compound were mixed in a 384-well plate in a reaction buffer (50 mM Hepes, 10 mM NaCl, 10 mM MgCl2, 2 mM EGTA, 2 mM DTT, pH 7.3) (total 10 μl), and incubated at 37° C. for 3 hours. After the reaction, 10 μL of a Kinase-Glo Plus reagent (Promega, Catalogue No. V3772) was added thereto, and a luminescence was measured with a luminometer. The IC50 value of the compound was calculated, taking the inhibition rate without addition of the enzyme as 100% and the inhibition rate without addition of the test compound as 0%, by a logistic method.
(§1) In the Table, Ex represents Example Compound No. as described later, PI3Kδ represents the IC50 value (nM) of a PI3Kδ enzyme inhibitory activity, and PI3Kα represents the IC50 value (nM) of a PI3Kα enzyme inhibitory activity.

[2] = molecular target: T2, human PI3Kδ enzyme (Homo sapiens, UniProt O00329); assay: PI3Kδ enzyme inhibitory activity (PI3-Kinase HTRF Assay kit); format: biochemical; details: human PI3Kδ 10 ng/well, ATP 30 μM, PIP2 10 μM, room temperature 30 minutes
T2 construct: purchased Millipore Corporation 14-604
T2 sequence (O00329 whole entry): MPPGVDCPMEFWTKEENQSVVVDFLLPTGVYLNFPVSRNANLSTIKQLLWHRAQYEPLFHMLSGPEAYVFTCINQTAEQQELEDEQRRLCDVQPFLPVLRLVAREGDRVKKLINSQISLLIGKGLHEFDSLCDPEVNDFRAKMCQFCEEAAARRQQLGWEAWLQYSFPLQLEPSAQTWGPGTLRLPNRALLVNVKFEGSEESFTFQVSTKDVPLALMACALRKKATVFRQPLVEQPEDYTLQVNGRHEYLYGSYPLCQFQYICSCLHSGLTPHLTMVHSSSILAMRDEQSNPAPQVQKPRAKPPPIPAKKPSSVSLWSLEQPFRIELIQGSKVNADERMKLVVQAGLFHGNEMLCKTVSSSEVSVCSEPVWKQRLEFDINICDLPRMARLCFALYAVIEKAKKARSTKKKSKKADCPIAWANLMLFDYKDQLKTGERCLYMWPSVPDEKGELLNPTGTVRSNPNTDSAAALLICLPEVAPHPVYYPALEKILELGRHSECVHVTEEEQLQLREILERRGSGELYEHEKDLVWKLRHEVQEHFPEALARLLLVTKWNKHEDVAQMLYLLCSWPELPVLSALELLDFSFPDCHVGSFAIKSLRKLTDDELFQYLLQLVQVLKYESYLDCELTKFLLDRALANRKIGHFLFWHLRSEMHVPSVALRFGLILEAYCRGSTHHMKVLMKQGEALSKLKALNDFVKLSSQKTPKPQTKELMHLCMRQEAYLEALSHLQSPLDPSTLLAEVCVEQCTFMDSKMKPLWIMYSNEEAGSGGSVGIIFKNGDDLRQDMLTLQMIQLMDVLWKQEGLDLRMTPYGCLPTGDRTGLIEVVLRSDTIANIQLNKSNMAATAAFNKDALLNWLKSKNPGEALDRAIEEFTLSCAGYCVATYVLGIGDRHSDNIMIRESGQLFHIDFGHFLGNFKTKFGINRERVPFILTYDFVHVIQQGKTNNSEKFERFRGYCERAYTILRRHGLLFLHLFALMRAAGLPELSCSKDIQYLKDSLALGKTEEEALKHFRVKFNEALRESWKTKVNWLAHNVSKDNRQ
T2 sequence (P27986 whole entry partner): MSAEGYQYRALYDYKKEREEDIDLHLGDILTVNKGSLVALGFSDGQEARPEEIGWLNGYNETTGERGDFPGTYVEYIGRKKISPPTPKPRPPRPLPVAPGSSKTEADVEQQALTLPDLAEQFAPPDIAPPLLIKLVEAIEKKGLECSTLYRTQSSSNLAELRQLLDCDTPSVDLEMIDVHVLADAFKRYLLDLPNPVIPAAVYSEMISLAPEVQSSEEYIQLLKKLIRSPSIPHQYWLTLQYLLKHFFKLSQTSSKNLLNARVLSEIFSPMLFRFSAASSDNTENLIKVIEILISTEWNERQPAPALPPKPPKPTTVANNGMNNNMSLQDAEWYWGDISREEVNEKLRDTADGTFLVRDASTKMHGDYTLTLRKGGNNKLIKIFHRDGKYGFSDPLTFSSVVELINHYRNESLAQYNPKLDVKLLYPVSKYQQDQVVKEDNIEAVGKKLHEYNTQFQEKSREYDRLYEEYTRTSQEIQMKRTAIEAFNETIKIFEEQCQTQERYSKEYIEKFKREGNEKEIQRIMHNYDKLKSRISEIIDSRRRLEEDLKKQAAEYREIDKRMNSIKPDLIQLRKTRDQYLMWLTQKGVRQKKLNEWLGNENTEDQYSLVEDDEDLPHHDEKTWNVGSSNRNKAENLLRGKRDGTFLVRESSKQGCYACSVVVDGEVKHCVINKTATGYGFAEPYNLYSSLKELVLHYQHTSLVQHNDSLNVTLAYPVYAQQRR
Procedure: 1. PI3Kδ Enzyme Inhibitory Activity
For the experiment, a PI3-Kinase HTRF Assay kit (Millipore Corporation, Catalogue No. 33-016) and a human PI3Kδ enzyme (Millipore Corporation, Catalogue No. 14-604) were used. The measurement method was in accordance with the appended instructions. The overview thereof is as follows.
PI3Kδ (10 ng/well), phosphatidylinositol-4,5-bisphosphate (10 μM), ATP (30 μM), and the test compound were mixed in a 384-well plate (total 20 μL), and incubated at room temperature for 30 minutes. EDTA and biotinylated phosphatidylinositol-3,4,5-triphosphate were added thereto to stop the reaction. Thereafter, a Europium labeled anti-GST antibody, a GST bond GRP1 PH domain, and streptavidin-APC were added thereto, followed by incubation overnight. An HTRF ratio was measured using an HTRF plate reader. The IC50 value of the compound was calculated, taking the inhibition rate without addition of the enzyme as 100% and the inhibition rate without addition of the test compound as 0%, by means of a logistic method.
as §1

T1 sequence (P42336 whole entry): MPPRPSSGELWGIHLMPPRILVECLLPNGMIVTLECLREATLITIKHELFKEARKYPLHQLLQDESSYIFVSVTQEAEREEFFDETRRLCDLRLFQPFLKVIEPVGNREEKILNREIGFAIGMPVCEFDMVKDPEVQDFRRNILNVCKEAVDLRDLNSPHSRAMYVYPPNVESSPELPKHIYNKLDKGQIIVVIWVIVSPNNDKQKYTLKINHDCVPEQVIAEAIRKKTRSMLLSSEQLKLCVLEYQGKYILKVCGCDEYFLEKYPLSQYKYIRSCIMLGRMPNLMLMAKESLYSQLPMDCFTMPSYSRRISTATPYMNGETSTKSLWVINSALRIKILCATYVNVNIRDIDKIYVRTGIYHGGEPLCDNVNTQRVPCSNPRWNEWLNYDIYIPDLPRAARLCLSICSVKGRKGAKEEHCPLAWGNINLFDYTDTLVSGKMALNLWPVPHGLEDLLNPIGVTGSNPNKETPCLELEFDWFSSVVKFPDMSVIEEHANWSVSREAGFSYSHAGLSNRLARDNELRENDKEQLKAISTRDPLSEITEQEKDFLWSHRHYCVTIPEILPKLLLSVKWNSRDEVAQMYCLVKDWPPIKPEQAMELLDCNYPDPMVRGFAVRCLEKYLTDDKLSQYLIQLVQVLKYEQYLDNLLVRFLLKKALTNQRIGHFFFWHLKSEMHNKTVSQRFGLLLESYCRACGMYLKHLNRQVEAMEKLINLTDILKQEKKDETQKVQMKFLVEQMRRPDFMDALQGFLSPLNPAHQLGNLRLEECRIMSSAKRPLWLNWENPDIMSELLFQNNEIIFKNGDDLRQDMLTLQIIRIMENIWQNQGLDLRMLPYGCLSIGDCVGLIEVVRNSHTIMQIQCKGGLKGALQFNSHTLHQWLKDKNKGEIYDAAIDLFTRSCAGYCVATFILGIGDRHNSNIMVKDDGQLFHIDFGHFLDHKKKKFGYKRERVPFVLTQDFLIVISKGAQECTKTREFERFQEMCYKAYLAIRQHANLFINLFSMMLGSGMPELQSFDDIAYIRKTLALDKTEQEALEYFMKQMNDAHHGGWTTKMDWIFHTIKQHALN
T1 sequence (P27986 whole entry partner): as the sequence (P27986 whole entry partner) above

Compound	IC50 [1]	IC50 [2]
N#Cc1ccc(NC(=O)N[C@H]2CC[C@H](Nc3cc(-n4c(C(F)F)nc5ccccc54)nc(N4CCOCC4)n3)CC2)cc1 [Example 125]	> 3000 nM	1.8 nM
Cc1ccc(S(=O)(=O)NCC(=O)N[C@H]2CC[C@H](Nc3nc(N4CCOCC4)cc(-n4c(C(F)F)nc5ccccc54)n3)CC2)cc1 [Example 53]	2700 nM	4.6 nM
O=S(=O)(N[C@H]1CC[C@H](Nc2cc(-n3c(C(F)F)nc4ccccc43)nc(N3CCOCC3)n2)CC1)c1ccccc1 [Example 95]	2500 nM	4.9 nM
CCN(CC(C)(C)O)[C@H]1CC[C@H](CNc2nc(N3CCOC[C@H]3C)cc(-n3c(C(F)F)nc4ccccc43)n2)CC1 [Example 402]	610 nM	3.6 nM
O=C(N[C@H]1CC[C@H](Nc2nc(N3CCOCC3)cc(-n3c(C(F)F)nc4ccccc43)n2)CC1)[C@@H]1CCCN1 [Example 154]	1800 nM	3.8 nM
FC(F)c1nc2ccccc2n1-c1nc(N[C@H]2CC[C@H](N3CCOCC3)CC2)nc(N2CCOCC2)n1 [Example 10, 4-[2-(difluoromethyl)-1H-benzimidazol-1-yl]-6-morpholin-4-yl-N-(trans-4-morpholin-4-ylcyclohexyl)-1,3,5-triazin-2-amine]	1500 nM	7.1 nM
O=C(NCc1ccc(F)cc1)N[C@H]1CC[C@H](Nc2nc(N3CCOCC3)nc(-n3c(C(F)F)nc4ccccc43)n2)CC1 [Example 116]	180 nM	5.2 nM
CCN(C(C)CF)[C@H]1CC[C@H](CNc2nc(N3CCOCC3)cc(-n3c(C(F)F)nc4ccccc43)n2)CC1 (some centres unmarked) [Example 344]	1000 nM	14 nM
CCN(C(=O)COC)[C@H]1CC[C@H](CNc2nc(N3CCOCC3)cc(-n3c(C(F)F)nc4ccccc43)n2)CC1 [Example 499]	1500 nM	11 nM
COCCN(CC(C)(C)O)[C@H]1CC[C@H](CNc2nc(N3CCOCC3)cc(-n3c(C(F)F)nc4ccccc43)n2)CC1 [Example 401]	3500 nM	15 nM
FC(F)c1nc2ccccc2n1-c1cc(OC[C@H]2CC[C@H](N3CCOCC3)CC2)nc(N2CCOCC2)n1 [Example 216]	> 3000 nM	5.6 nM
CC(=O)N[C@H]1CC[C@H](Nc2nc(N3CCOCC3)nc(-n3c(C(F)F)nc4ccccc43)n2)CC1 [Example 193]	550 nM	23 nM
O=C(N[C@H]1CC[C@H](Nc2nc(N3CCOCC3)nc(-n3c(C(F)F)nc4ccccc43)n2)CC1)C(O)CO (some centres unmarked) [Example 39]	470 nM	9.5 nM
CC(C)(O)CN(CC(C)(C)O)[C@H]1CC[C@H](CNc2nc(N3CCOCC3)cc(-n3c(C(F)F)nc4ccccc43)n2)CC1 [Example 396]	2300 nM	13 nM
O=C(NCCN1CCOCC1)N[C@H]1CC[C@H](Nc2nc(N3CCOCC3)nc(-n3c(C(F)F)nc4ccccc43)n2)CC1 [Example 6, 1-[trans-4-({4-[2-(difluoromethyl)-1H-benzimidazol-1-yl]-6-morpholin-4-yl-1,3,5-triazin-2-yl}amino)cyclohexyl]-3-(2-morpholin-4-ylethyl)urea]	330 nM	4.6 nM
CN(C)CCC(=O)N[C@H]1CC[C@H](Nc2nc(N3CCOCC3)cc(-n3c(C(F)F)nc4ccccc43)n2)CC1 [Example 208]	2300 nM	8.6 nM
CC(F)CN(C)[C@H]1CC[C@H](CNc2nc(N3CCOCC3)cc(-n3c(C(F)F)nc4ccccc43)n2)CC1 (some centres unmarked) [Example 330]	5500 nM	8.6 nM
O=C(CN1CCCC1)N[C@H]1CC[C@H](Nc2nc(N3CCOCC3)cc(-n3c(C(F)F)nc4ccccc43)n2)CC1 [Example 187]		9.1 nM
FC[C@@H]1CCCN1[C@H]1CC[C@@H](CNc2cc(-n3c(C(F)F)nc4ccccc43)nc(N3CCOCC3)n2)CC1 [Example 485]	> 10000 nM	31 nM
CC(N[C@H]1CC[C@H](Nc2nc(N3CCOCC3)nc(-n3c(C(F)F)nc4ccccc43)n2)CC1)C1CCCCC1 (some centres unmarked) [Example 107]		8.8 nM
CC(F)C(C)N(C)[C@H]1CC[C@H](CNc2nc(N3CCOCC3)cc(-n3c(C(F)F)nc4ccccc43)n2)CC1 (some centres unmarked) [Example 384]	1600 nM	16 nM

Compound	IC50 [1]	IC50 [2]
CC(C)(C)OC(=O)NC(C)(C)C(=O)N[C@H]1CC[C@H](Nc2nc(N3CCOCC3)cc(-n3c(C(F)F)nc4ccccc43)n2)CC1 [Example 210]	5100 nM	22 nM
N#Cc1ccc(NC(=O)N[C@H]2CC[C@H](Nc3nc(N4CCOCC4)cc(-n4c(C(F)F)nc5ccccc54)n3)CC2)cc1 [Example 123]	460 nM	0.85 nM
C#CCN(CC#C)[C@H]1CC[C@H](CNc2nc(N3CCOCC3)cc(-n3c(C(F)F)nc4ccccc43)n2)CC1 [Example 423]	4200 nM	11 nM
Oc1ccccc1CN[C@H]1CC[C@H](Nc2nc(N3CCOCC3)nc(-n3c(C(F)F)nc4ccccc43)n2)CC1 [Example 104]	810 nM	2.1 nM
FC[C@@H]1CCCN1[C@H]1CC[C@@H](COc2cc(-n3c(C(F)F)nc4ccccc43)nc(N3CCOCC3)n2)CC1 [Example 483]	8700 nM	15 nM
CC(=O)N(C)[C@H]1CC[C@H](Nc2nc(N3CCOCC3)nc(-n3c(C(F)F)nc4ccccc43)n2)CC1 [Example 14, N-[trans-4-({4-[2-(difluoromethyl)-1H-benzimidazol-1-yl]-6-morpholin-4-yl-1,3,5-triazin-2-yl}amino)cyclohexyl]-N-methylacetamide]	1400 nM	4.4 nM
CN(C)CC(=O)N(C)[C@H]1CC[C@H](Nc2nc(N3CCOCC3)nc(-n3c(C(F)F)nc4ccccc43)n2)CC1 [Example 47]	900 nM	16 nM
CCOCCN(C)[C@H]1CC[C@H](CNc2nc(N3CCOCC3)cc(-n3c(C(F)F)nc4ccccc43)n2)CC1 [Example 397]	2900 nM	23 nM
O=C(CN1CCCCCC1)N[C@H]1CC[C@H](Nc2cc(-n3c(C(F)F)nc4ccccc43)nc(N3CCOCC3)n2)CC1 [Example 190]	> 3000 nM	4.1 nM
O=C(CS(=O)(=O)c1ccccc1)N[C@H]1CC[C@H](Nc2nc(N3CCOCC3)cc(-n3c(C(F)F)nc4ccccc43)n2)CC1 [Example 52]	2700 nM	3.4 nM
O=S1(=O)CCCN1[C@H]1CC[C@H](Nc2cc(-n3c(C(F)F)nc4ccccc43)nc(N3CCOCC3)n2)CC1 [Example 18, 6-[2-(difluoromethyl)-1H-benzimidazol-1-yl]-N-[trans-4-(1,1-dioxidoisothiazolin-2-yl)cyclohexyl]-2-morpholin-4-ylpyrimidin-4-amine]	2900 nM	5 nM
O=S1(=O)CCN([C@H]2CC[C@H](CNc3cc(-n4c(C(F)F)nc5ccccc54)nc(N4CCOCC4)n3)CC2)CC1 [Example 229]	6700 nM	10 nM
O=S1(=O)CCN([C@H]2CC[C@H](CNc3nc(N4CCOCC4)cc(-n4c(C(F)F)nc5ccccc54)n3)CC2)CC1 [Example 231]	1500 nM	8.2 nM
O=C1CCCN1[C@H]1CC[C@H](Nc2cc(-n3c(C(F)F)nc4ccccc43)nc(N3CCOCC3)n2)CC1 [Example 185]	> 3000 nM	4.3 nM
CN1CCC[C@@H](C(=O)N[C@H]2CC[C@H](Nc3nc(N4CCOCC4)cc(-n4c(C(F)F)nc5ccccc54)n3)CC2)C1 [Example 112]	1400 nM	4.6 nM
N[C@H]1CC[C@H](Nc2nc(N3CCOCC3)nc(-n3c(C(F)F)nc4ccccc43)n2)CC1 [Example 27]	990 nM	20 nM
C#CCN(C(C)C(C)(C)O)[C@H]1CC[C@H](CNc2nc(N3CCOCC3)cc(-n3c(C(F)F)nc4ccccc43)n2)CC1 (some centres unmarked) [Example 481]	1100 nM	8.9 nM
O=S1(=O)CCCN1[C@H]1CC[C@H](COc2cc(-n3c(C(F)F)nc4ccccc43)nc(N3CCOCC3)n2)CC1 [Example 209]	2800 nM	20 nM
CNC(=O)N[C@H]1CC[C@H](Nc2nc(N3CCOCC3)nc(-n3c(C(F)F)nc4ccccc43)n2)CC1 [Example 5, 1-[trans-4-({4-[2-(difluoromethyl)-1H-benzimidazol-1-yl]-6-morpholin-4-yl-1,3,5-triazin-2-yl}amino)cyclohexyl]-3-methylurea]	210 nM	11 nM
CC(N[C@H]1CC[C@H](Nc2nc(N3CCOCC3)nc(-n3c(C(F)F)nc4ccccc43)n2)CC1)c1ccccc1O (some centres unmarked) [Example 108]	2200 nM	2.8 nM

— patent US20120165309A1, “HETERO RING DERIVATIVE” (Astellas Pharma Inc., priority 2009, published 2012)
